From PubChem BioAssay (NCI)
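Grown in 96-well plates, cells were treated for 48 hours with each compound at five concentrations. Insufficient inhibition: endpoint recorded as highest concentration tested. TGI is the concentration that stops growth completely.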

Key:
Experiment in all cases: NCI tumour cell line growth inhibition, 48 h
786-0 renal = tested on: 786-0 renal
A498 renal = tested on: A498 renal
A549 NSCLC = tested on: A549 NSCLC
ACHN renal = tested on: ACHN renal
BT-549 breast = tested on: BT-549 breast
CAKI-1 renal = tested on: CAKI-1 renal
CCRF-CEM leukemia = tested on: CCRF-CEM leukemia
COLO 205 colon = tested on: COLO 205 colon
DU-145 prostate = tested on: DU-145 prostate
EKVX NSCLC = tested on: EKVX NSCLC
HCC-2998 colon = tested on: HCC-2998 colon
HCT-116 colon = tested on: HCT-116 colon
HCT-15 colon = tested on: HCT-15 colon
HL-60(TB) leukemia = tested on: HL-60(TB) leukemia
HOP-62 NSCLC = tested on: HOP-62 NSCLC
HOP-92 NSCLC = tested on: HOP-92 NSCLC
HS 578T breast = tested on: HS 578T breast
HT29 colon = tested on: HT29 colon
IGROV1 ovarian = tested on: IGROV1 ovarian
K-562 leukemia = tested on: K-562 leukemia
KM12 colon = tested on: KM12 colon
LOX IMVI melanoma = tested on: LOX IMVI melanoma
M14 melanoma = tested on: M14 melanoma
MALME-3M melanoma = tested on: MALME-3M melanoma
MCF7 breast = tested on: MCF7 breast
MDA-MB-231 breast = tested on: MDA-MB-231 breast
MDA-MB-435 = tested on: MDA-MB-435
MDA-N = tested on: MDA-N
MOLT-4 leukemia = tested on: MOLT-4 leukemia
NCI-H226 lung = tested on: NCI-H226 lung
NCI-H23 lung = tested on: NCI-H23 lung
NCI-H460 lung = tested on: NCI-H460 lung
NCI-H522 lung = tested on: NCI-H522 lung
NCI/ADR-RES ovarian = tested on: NCI/ADR-RES ovarian
OVCAR-3 ovarian = tested on: OVCAR-3 ovarian
OVCAR-4 ovarian = tested on: OVCAR-4 ovarian
OVCAR-5 ovarian = tested on: OVCAR-5 ovarian
OVCAR-8 ovarian = tested on: OVCAR-8 ovarian
PC-3 prostate = tested on: PC-3 prostate
RPMI-8226 leukemia = tested on: RPMI-8226 leukemia
RXF 393 renal = tested on: RXF 393 renal
SF-268 CNS = tested on: SF-268 CNS
SF-295 CNS = tested on: SF-295 CNS
SK-MEL-2 melanoma = tested on: SK-MEL-2 melanoma
SK-MEL-28 melanoma = tested on: SK-MEL-28 melanoma
SK-MEL-5 melanoma = tested on: SK-MEL-5 melanoma
SK-OV-3 ovarian = tested on: SK-OV-3 ovarian
SN12C renal = tested on: SN12C renal
SNB-19 CNS = tested on: SNB-19 CNS
SNB-75 CNS = tested on: SNB-75 CNS
SW-620 colon = tested on: SW-620 colon
T-47D breast = tested on: T-47D breast
TK-10 renal = tested on: TK-10 renal
U251 CNS = tested on: U251 CNS
UACC-257 melanoma = tested on: UACC-257 melanoma
UO-31 renal = tested on: UO-31 renal
SF-539 CNS = tested on: SF-539 CNS
UACC-62 melanoma = tested on: UACC-62 melanoma

SMILES: CCOC(=O)CCCN
- TGI (786-0 renal): > 100 µM
- TGI (A498 renal): > 100 µM
- TGI (A549 NSCLC): > 100 µM
- TGI (ACHN renal): > 100 µM
- TGI (BT-549 breast): > 100 µM
- TGI (CAKI-1 renal): > 100 µM
- TGI (CCRF-CEM leukemia): > 100 µM
- TGI (COLO 205 colon): > 100 µM
- TGI (DU-145 prostate): > 100 µM
- TGI (EKVX NSCLC): > 100 µM
- TGI (HCC-2998 colon): > 100 µM
- TGI (HCT-116 colon): > 100 µM
- TGI (HCT-15 colon): > 100 µM
- TGI (HL-60(TB) leukemia): > 100 µM
- TGI (HOP-62 NSCLC): > 100 µM
- TGI (HOP-92 NSCLC): > 100 µM
- TGI (HS 578T breast): > 100 µM
- TGI (HT29 colon): > 100 µM
- TGI (IGROV1 ovarian): > 100 µM
- TGI (K-562 leukemia): > 100 µM
- TGI (KM12 colon): > 100 µM
- TGI (LOX IMVI melanoma): > 100 µM
- TGI (M14 melanoma): > 100 µM
- TGI (MALME-3M melanoma): > 100 µM
- TGI (MCF7 breast): > 100 µM
- TGI (MDA-MB-231 breast): > 100 µM
- TGI (MDA-MB-435): > 100 µM
- TGI (MDA-N): > 100 µM
- TGI (MOLT-4 leukemia): > 100 µM
- TGI (NCI-H226 lung): > 100 µM
- TGI (NCI-H23 lung): > 100 µM
- TGI (NCI-H460 lung): > 100 µM
- TGI (NCI-H522 lung): > 100 µM
- TGI (NCI/ADR-RES ovarian): > 100 µM
- TGI (OVCAR-3 ovarian): > 100 µM
- TGI (OVCAR-4 ovarian): > 100 µM
- TGI (OVCAR-5 ovarian): > 100 µM
- TGI (OVCAR-8 ovarian): > 100 µM
- TGI (PC-3 prostate): > 100 µM
- TGI (RPMI-8226 leukemia): > 100 µM
- TGI (RXF 393 renal): > 100 µM
- TGI (SF-268 CNS): > 100 µM
- TGI (SF-295 CNS): > 100 µM
- TGI (SK-MEL-2 melanoma): > 100 µM
- TGI (SK-MEL-28 melanoma): > 100 µM
- TGI (SK-MEL-5 melanoma): > 100 µM
- TGI (SK-OV-3 ovarian): > 100 µM
- TGI (SN12C renal): > 100 µM
- TGI (SNB-19 CNS): > 100 µM
- TGI (SNB-75 CNS): > 100 µM
- TGI (SW-620 colon): > 100 µM
- TGI (T-47D breast): > 100 µM
- TGI (TK-10 renal): > 100 µM
- TGI (U251 CNS): > 100 µM
- TGI (UACC-257 melanoma): > 100 µM
- TGI (UO-31 renal): > 100 µM

SMILES: c1ccc(C/C(=N\Nc2nc3ccccc3[nH]2)c2ccccn2)cc1
- TGI (786-0 renal): 5.7 µM
- TGI (A498 renal): 1.37 µM
- TGI (A549 NSCLC): 11.9 µM
- TGI (ACHN renal): 3.06 µM
- TGI (BT-549 breast): 16.1 µM
- TGI (CAKI-1 renal): 1.52 µM
- TGI (CCRF-CEM leukemia): 0.375 µM
- TGI (DU-145 prostate): 27.7 µM
- TGI (HCC-2998 colon): 30.9 µM
- TGI (HCT-116 colon): 5.18 µM
- TGI (HCT-15 colon): 15.6 µM
- TGI (HOP-62 NSCLC): 12.6 µM
- TGI (HOP-92 NSCLC): 0.653 µM
- TGI (HS 578T breast): 20 µM
- TGI (HT29 colon): 5.23 µM
- TGI (IGROV1 ovarian): 0.327 µM
- TGI (K-562 leukemia): > 100 µM
- TGI (KM12 colon): 15.4 µM
- TGI (LOX IMVI melanoma): 8.1 µM
- TGI (M14 melanoma): 0.915 µM
- TGI (MALME-3M melanoma): 2.23 µM
- TGI (MCF7 breast): 0.607 µM
- TGI (MDA-MB-231 breast): 13.4 µM
- TGI (MDA-MB-435): 11.1 µM
- TGI (MDA-N): 12.8 µM
- TGI (MOLT-4 leukemia): 6.85 µM
- TGI (NCI-H226 lung): 0.295 µM
- TGI (NCI-H23 lung): 13.5 µM
- TGI (NCI-H460 lung): 11.3 µM
- TGI (NCI-H522 lung): 0.105 µM
- TGI (NCI/ADR-RES ovarian): 0.0936 µM
- TGI (OVCAR-4 ovarian): 10.4 µM
- TGI (OVCAR-5 ovarian): 8.14 µM
- TGI (OVCAR-8 ovarian): 2.08 µM
- TGI (PC-3 prostate): 0.503 µM
- TGI (RPMI-8226 leukemia): 0.131 µM
- TGI (RXF 393 renal): 1.58 µM
- TGI (SF-268 CNS): 12 µM
- TGI (SF-295 CNS): 6.78 µM
- TGI (SF-539 CNS): 0.741 µM
- TGI (SK-MEL-2 melanoma): 15.3 µM
- TGI (SK-MEL-28 melanoma): 11 µM
- TGI (SK-MEL-5 melanoma): 4.65 µM
- TGI (SK-OV-3 ovarian): 0.413 µM
- TGI (SN12C renal): 10.9 µM
- TGI (SNB-19 CNS): 17.9 µM
- TGI (SW-620 colon): 15.1 µM
- TGI (T-47D breast): 15.6 µM
- TGI (TK-10 renal): 1.83 µM
- TGI (U251 CNS): 12.3 µM
- TGI (UACC-257 melanoma): 1.54 µM
- TGI (UACC-62 melanoma): 2.79 µM
- TGI (UO-31 renal): 1.88 µM
